Assay: In-vitro digestion pH titration
Format: in vitro ADME
Conditions: FIG. 9
Text: The digestion pH titration curves for both compositions, as well as control samples F-11 and the Miglyol 808 oil are shown in FIG. 9.

CCCCCCCC(=O)OCC(COC(=O)CCCCCCC)OC(=O)CCCCCCC [Miglyol 808 oil, caprylic triglyceride]
digestion pH titration curve: sigmoidal titration curve, and is slower to reach the endpoint

From patent publication US20230277459A1, “PHARMACEUTICAL COMPOSITIONS HAVING HIGH DRUG LOADINGS OF MEDIUM CHAIN TRIGLYCERIDES AND METHODS RELATED THERETO” (CERECIN INC., priority 2017, published 2023)
